The record followed here is PubChem BioAssay (NCI).

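The compound was tested at five concentrations on cells cultured in 96-well plates, with a 48-hour exposure period. The concentration for 50% growth inhibition is given as GI50. TGI: total growth inhibition.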

Common to all, as to assay: DTP human tumour cell line panel, 48 h
Test [1] deals with A549 NSCLC.
For test [2], the system named is HCT-15 colon.
The subject of test [3] is K-562 leukemia.
Test [4] concerns KM12 colon.
Test [5] deals with NCI/ADR-RES ovarian.
In test [6] the test system is SF-268 CNS.
The subject of test [7] is SK-MEL-2 melanoma.
Test [8] relates to SNB-19 CNS.
Test [9] has as its system UACC-62 melanoma.
In test [10] the test system is HCC-2998 colon.

Turning to `C[C@H](C/C=C/C(C)(C)O)[C@H]1CC[C@@]2(C)[C@@H]3CC[C@H]4C(C)(C)[C@@H](O)CC[C@@]45C[C@@]35CC[C@]12C`, the TGI (usually the concentration giving total growth inhibition) in [1] was found to be 31 µM; in test [2], 83.1 µM; in test [3], 70.3 µM; in test [4], 77.4 µM; in test [5], 19.4 µM; in [6] it was 19.6 µM. Further, the figures for the TGI in test [7], in test [8] and in test [9] were 37.7 µM, 54.9 µM and 56 µM, respectively.
`CCOC(=O)C1=C(C)N(c2ccc(OC)cc2)C2(O)C=CC(=O)C3=C(O)c4ccccc4C(=O)C312` (configuration not stated): the TGI in test [1] was 36.2 µM; in test [2] it was 20.9 µM; in test [3], 39.5 µM; in test [4], 29.2 µM; in test [5], 20.1 µM; in [6], 9.82 µM. The TGI turned out to be 31 µM in test [7], 41.1 µM in [8] and 26.4 µM in test [9].
Turning to `O=C(NC(=S)NC(=O)c1cc(O)c(O)c(O)c1)c1cc(O)c(O)c(O)c1`, the TGI in test [1] was above 100 µM; in [10], 87.9 µM; in [2], 67.8 µM; in test [4], 70.5 µM; in [5] it was 70.4 µM; in [6], above 100 µM. Also, the TGI in test [7] was 40.4 µM; in test [8], 52.8 µM; in test [9], 49.4 µM.
As for `Cc1nc2ccccc2c(/C=C/c2ccc(Cl)cc2)c1C(=O)/C=C/c1ccc(Cl)cc1`, the GI50 (in general, the concentration at which growth is held to half of that of the control) was 1.53 µM in test [10]; 0.787 µM in test [2]; 1.28 µM in [3]; 2.12 µM in test [5]; 1.57 µM in [8]; 1.59 µM in test [9]. Further, the TGI was 3 µM in test [10]; 3.13 µM in test [2]; above 100 µM in [3]; 6.15 µM in test [5]; 2.94 µM in test [8]; 3.27 µM in [9].
On to `Cc1ccccc1NC(=O)Cc1csc2[n+]1C(=O)/C(=C/c1ccc([N+](=O)[O-])cc1)S2`, for which the TGI in test [1], in test [10], in test [2], in test [4], in test [5] and in test [7] was above 100 µM each time. The compound also had a TGI in [8] above 100 µM.
As to `COc1cc(-c2ccccc2N)c2cccnc2c1OC`, the TGI in [1] came to 16.1 µM; in test [2], 16.1 µM; in [3], 20.5 µM; in test [4], 24.3 µM; in test [5], 35.9 µM; in [6], 12.8 µM. Besides, the values for the TGI in test [7], in test [8] and in test [9] were 26.5 µM, 18.6 µM and 24.2 µM, respectively.
As for `CC(C)C1N(C)c2ccc(Cl)cc2[C@H]2c3ccccc3CCN12` (some centres not stated), the TGI in [1], in test [2], in [3], in test [4], in test [5] and in test [6] was above 100 µM each time. The TGI in test [7] was 74.1 µM; in test [8], above 100 µM; in test [9], above 100 µM.
For `COc1ccc(-n2sc3ncccc3c2=O)cc1`, the TGI was above 100 µM in [1]; above 100 µM in test [10]; 44.2 µM in [2]; 34.5 µM in test [4]; 59.6 µM in [5]; 58.3 µM in test [6]. Besides, the TGI in [7], in test [8] and in test [9] was above 100 µM throughout.
Consider `O=C(OCC(Cl)(Cl)Cl)O[C@@H]1CCCC1(c1ccccc1)c1ccccc1`, for which the TGI in test [1], in test [10], in test [2], in test [3], in test [4] and in test [5] was above 100 µM in each case. Further, the TGI in [6], in test [8] and in [9] was above 100 µM in each case.
For `COc1cccc(/C=N/[N-]C(N)=O)c1[O-].[Cu+2].[OH3+].c1ccc(-c2ccccn2)nc1`, the TGI in [1] was above 100 µM; in test [10], above 100 µM; in test [2] it was above 100 µM; in test [3], 66 µM; in test [4] it was above 100 µM; in test [6] it was above 100 µM. For the same compound, the TGI in test [7] is 45.1 µM; in test [8], 38.1 µM; in test [9] it was 31.3 µM.
For `COc1ccccc1C[C@@H]1OC2(C=CC(=O)C=C2)O[C@H]1Cc1ccccc1OC`, the TGI in test [1] was above 50 µM; in [2], 27.9 µM; in test [3], above 50 µM; in test [4], 18.8 µM; in test [5], 18.4 µM; in test [6], 16.9 µM. The TGI amounted to 18.4 µM in [7], 24.2 µM in [8] and 23.2 µM in test [9].
In the case of `COc1ccc(/C=N/n2cnc3[nH]c(C)c(Cc4ccccc4)c3c2=N)cc1`, the TGI in test [1], in test [10], in test [2], in test [4], in [5] and in test [6] was above 100 µM in each case. In addition, the TGI in test [7], in test [8] and in test [9] was above 100 µM in each case.
With `C[C@H]1S[C@H](c2c(Cl)cccc2Cl)N2Cc3ccccc3N=C12`, the TGI in test [1] was 40.3 µM; in test [10], 29.5 µM; in test [2] it was 33.7 µM; in [3], above 100 µM; in [4] it was 27.8 µM; in test [6] it was 32.5 µM. Further, the TGI in [7] is 26.1 µM; in test [8] it was 23.3 µM; in test [9], 26.1 µM.
On to `O=C1C(CN2CCOCC2)CCCC1CN1CCOCC1` (configuration not stated), for which the total growth inhibition concentration (TGI) amounted to 55.4 µM in test [1]; 10.3 µM in test [10]; 3.2 µM in test [2]; 6.84 µM in test [3]; 17.8 µM in test [4]; 43.3 µM in [6]. For the same compound, the values for the TGI in [7], in [8] and in [9] were 16.3 µM, 45.7 µM and 14.5 µM, respectively.
Consider `CC(=O)[CH-]C(=O)c1ccccc1.CC(=O)[CH-]C(=O)c1ccccc1.C[C@]12CCC(=O)C=C1CC[C@@H]1C2CC[C@@]2(C)C1CC[C@]2(C)[O-].C[C@]12CCC(=O)C=C1CC[C@@H]1C2CC[C@@]2(C)C1CC[C@]2(C)[O-].Cl.[Ti+4]` (some centres not stated), for which the GI50 is 16.1 µM in test [1]; 17.3 µM in test [10]; 6.49 µM in [2]; 3.76 µM in test [3]; 13.5 µM in [4]; 20.7 µM in [6]. Further, the GI50 in [7] was 13.9 µM; in test [8], 14 µM; in [9], 12.8 µM. For the same compound, the TGI is 40.3 µM in test [1]; 41.7 µM in test [10]; 52.4 µM in test [2]; above 100 µM in test [3]; 71.3 µM in test [4]; 75.2 µM in test [6]. The TGI is 33.2 µM in test [7], 29.3 µM in [8] and 42.9 µM in test [9].
For `COC(=O)c1ccc(Nc2nc3nc[nH]c3c(=O)[nH]2)cc1`, the TGI in test [1], in test [10], in [2], in test [4], in test [5] and in test [6] was above 100 µM each time. The TGI in test [7], in test [8] and in [9] was above 100 µM each time.
As to `CCCC(CCN)(CCN)[N+](=O)[O-]`, the TGI in test [1], in [2], in test [3], in test [4], in [5] and in test [6] was above 100 µM in each case. For the same compound, the TGI in test [7], in test [8] and in [9] was above 100 µM each time.
On to `Cc1cc(=O)[nH]c(NN2C(Cl)C(=O)C2c2cccc(Cl)c2)n1` (configuration not stated), for which the TGI is above 100 µM in test [1]; 98.9 µM in test [10]; 40.9 µM in [2]; 65.8 µM in test [3]; 67 µM in [4]; 98.1 µM in test [6]. Further, the TGI is 35.8 µM in test [7], 92.6 µM in test [8] and 87.2 µM in test [9].
Turning to `COc1cc(C2c3cc4c(cc3OC(N3CCNCC3)C2C)OCO4)cc(OC)c1OC` (configuration not stated), the TGI is above 53.9 µM in test [1]; 5.83 µM in test [10]; above 39.9 µM in [2]; 10.9 µM in [3]; 9.87 µM in test [4]; above 44.2 µM in [6]. Further, the TGI was above 40.6 µM in test [7], above 82.3 µM in test [8] and 14.9 µM in test [9].
`CCOC(=O)C1=COC(C)(CCc2ccccc2)CC1=O` (configuration not stated): the TGI in [1], in [2], in [3], in test [4], in test [5] and in [6] was above 100 µM throughout. The TGI in test [7], in test [8] and in test [9] was above 100 µM in each case.
`COc1ccc(C(OCC2OC(n3ccc(NC(=O)c4ccccc4)nc3=O)CC2OP2(=S)SCCS2)(c2ccccc2)c2ccc(OC)cc2)cc1` (configuration not stated): the TGI is above 100 µM in test [1]; above 100 µM in test [2]; above 100 µM in test [3]; above 10 µM in [5]; 44.1 µM in [6]; above 100 µM in test [7]. For the same compound, the TGI was found to be 86.4 µM in test [8] and 34.9 µM in test [9].
Take `CC(C)(C)OC(=O)NCCCCC(NC(=O)c1ccccc1)C(N)=O` (configuration not stated): the TGI in [1], in [2], in [3], in test [4], in test [5] and in test [6] was above 100 µM throughout. Besides, the TGI in test [7], in [8] and in [9] was above 100 µM each time.
Regarding `C[C@@H]1S[C@H](c2c(Cl)cccc2Cl)N2Cc3ccccc3N=C12`, the TGI in test [1], in test [10], in test [2], in [3], in [4] and in test [6] was above 100 µM each time. In addition, the TGI in test [7], in test [8] and in test [9] was above 100 µM throughout.
For `N#C[C@H](c1nc2ccccc2s1)c1nc2ccccc2nc1Cl`, the TGI in [1] was above 100 µM; in [10], 7.09 µM; in test [2] it was 22.9 µM; in test [4], above 100 µM; in test [5], above 100 µM; in [7] it was above 100 µM. Besides, the TGI is above 100 µM in test [8] and 31.4 µM in test [9].
Take `Cn1c(N/N=C/c2ccccc2)nc(-c2ccc([N+](=O)[O-])cc2)c(C#N)c1=O`: the TGI in test [1], in test [2], in test [3], in test [4], in test [5] and in [6] was above 100 µM in each case. Further, the TGI in test [7] is above 100 µM; in [8], above 100 µM; in test [9], 97.5 µM.
As for `COc1ccc2oc(=O)c(-c3csc(C)n3)cc2c1`, the TGI in test [1] was above 100 µM; in test [10], above 100 µM; in [2], above 100 µM; in [3] it was above 100 µM; in test [4], above 100 µM; in [6], 50.3 µM. Moreover, the TGI is above 100 µM in test [7], above 100 µM in [8] and 73.1 µM in test [9].
For the compound `COc1cc(C2c3cc4c(cc3OC(NCCO)C2C)OCO4)cc(OC)c1OC` (configuration not stated), the TGI in test [1] is above 100 µM; in test [10], above 23.2 µM; in test [2] it was above 34.8 µM; in test [4], above 70.2 µM; in test [5] it was above 100 µM; in [6], above 84.9 µM. For the same compound, the TGI in test [7], in test [8] and in test [9] was above 100 µM each time.
Consider `Clc1ccc(OCc2nn3c(CCc4nnc5sc(COc6ccc(Cl)cc6)nn45)nnc3s2)cc1`, for which the TGI is 95.8 µM in [2]; above 100 µM in test [3]; 60.2 µM in [4]; 37.5 µM in [5]; above 100 µM in test [6]; 87.8 µM in test [7].
